This assay can be described thus: Inhibition of Aurora-B in human HCT116 cells by FACS-based endoreduplication assay.
Consider `COc1cc2c(Oc3ccc(-c4nc5ccccc5s4)cc3)ncnc2cc1OCCCN1CCN(C)CC1` [2-(4-(6-methoxy-7-(3-(4-methylpiperazin-1-yl)propoxy)quinazolin-4-yloxy)phenyl)benzo[d]thiazole], for which the EC50 is greater than 10 µM. Turning to `COc1cc2c(Oc3ccc(-c4nc5ccccc5s4)cc3)ncnc2cc1OCCCN1CCCC1` [2-(4-(6-methoxy-7-(3-(pyrrolidin-1-yl)propoxy)quinazolin-4-yloxy)phenyl)benzo[d]thiazole], the EC50 is greater than 10 µM. To `COc1cc2c(Nc3ccc(-c4nc5ccccc5s4)c(Cl)c3)ncnc2cc1OCCCN1CCN(C)CC1` [N-(4-(benzo[d]thiazol-2-yl)-3-chlorophenyl)-6-methoxy-7-(3-(4-methylpiperazin-1-yl)propoxy)quinazolin-4-amine] belongs greater than 10 µM; to `COc1cc2c(Nc3ccc(-c4nc5ccccc5s4)c(F)c3)ncnc2cc1OCCCN1CCN(C)CC1` [N-(4-(benzo[d]thiazol-2-yl)-3-fluorophenyl)-6-methoxy-7-(3-(4-methylpiperazin-1-yl)propoxy)quinazolin-4-amine], greater than 10 µM; to `COc1cc2c(Nc3ccc(-c4nc5cc(Cl)ccc5s4)cc3)ncnc2cc1OCCCN1CCN(C)CC1` [N-[4-(6''-Chlorobenzo[d]thiazol-2''-yl)phenyl]-6'-methoxy-7'-[3-(4-methylpiperazin-1-yl)propoxy]quinazolin-4'-amine], greater than 10 µM.

Values taken from BindingDB's records for doi:10.1016/j.bmc.2009.07.047 (4Sc, 2009).
